Laboratory results: patent publication US8008354B2, “Death receptor sensitizing compounds and methods of use therefor” (Burnham Institute for Medical Research, priority 2006, dated 2011)
Where a name gives a salt, the structure may show the parent alone.

What was measured:
PPC-1 cells [1] = assay: Annexin V apoptosis of PPC-1 cells with CH-11 and sensitizer, with or without zVAD-fmk; type: cell-based, human; conditions: zVAD-fmk 100 μM, annexin V staining
Procedure: FIG. 6. Characterization of the mechanism of FAS-sensitizing compounds. (A) PPC-1 cells (1×10^5) were seeded in 24 well plates. The next day, cells were treated with CH-11 antibody (100 ng/mL) and 30 μM 6094911, 5809354, or 5569100 with (square) or without (diamond) caspase inhibitor z-VAD-fmk (100 μM). Apoptosis was measured 24 hours later by Annexin V staining, expressing data as percentage of Annexin V-negative (“viable”) cells (mean+SD) (n=3). (B) PPC-1 cells (2×10^5) were seeded in 6 well plates and co-transfected with plasmids encoding Bcl-XL, Crm A, or empty vector along with a green fluorescent protein (GFP) encoding plasmid to identify successfully transfected cells. After 48 hours, cells were treated with CH-11 antibody (100 ng/mL) and 6094911 (30 μM), 5809354 (30 μM), or 5569100 (15 μM). As a positive control, transfected cells were treated with staurosporine (0.5 μM) (STS). Apoptotic cells were identified by morphological assessment of the GFP-positive cells, and data were expressed as the percentage of nonapoptotic (“viable”) cells (mean+SD) (n=3).
Cell death assays. Cell viability was measured by MTT and MTS assays, essentially as described in Schimmer et al. (2004). Absorbance readings were plotted against a standard curve to derive the corresponding cell number, and cell viability was expressed as a percentage relative to untreated cells. Apoptosis was measured by flow cytometric analysis of Annexin V surface expression after staining cells with FITC-anti-Annexin V and propidium iodide (PI) (Biovision, Mountain View, Calif.), as described in Pederson et al. (2002).
To further assess the mechanism of the 8 compounds that selectively modulated tumor sensitivity to extrinsic pathway stimuli, the effects of benzoyl-Val-Ala-Asp-fluoromethylketone (zVAD-fmk), a broad-spectrum irreversible inhibitor of caspase-family proteases (Enzyme Systems, Dublin, Calif.) was tested. Accordingly, PPC-1 cells were treated with CH-11 and sensitizers such as 6094911, 5809354, and 5569100 with and without zVAD-fmk (100 μM) for […]. Apoptosis was then measured by annexin V staining.

PPC-1 cells [2] = assay: MTT cell viability of PPC-1 cells treated with compound with or without CH-11 anti-FAS antibody; type: cell-based; conditions: for IC50: Homo sapiens, PPC-1, 24 h, compound alone without CH-11, MTT 24 hours, read-out: LD50 (μM) PPCl; for LD50 (μM) (PPCl, CH-11): PPC-1 cells with CH-11 100 ng/mL, MTT 24 hours, LD50 = concentration that reduces cell viability by 50%
Procedure: FIGS. 2A-C. […] PPC-1 cells (1×10^4) were seeded in 96 well plates. The next day, cells were treated with increasing concentrations of the sensitizing compounds with (open squares) and without (closed squares) CH-11 antibody (100 ng/mL). Cell viability was measured 24 hours later by MTT assay. Cell viability is expressed as a mean percentage of untreated cells+SD (n=3). The Chembridge identification numbers of the compounds are provided.
High throughput screening. […] PPC-1 cells (1×10^4) were seeded overnight into 96 well, flat-bottom plates (Costar, Cambridge, Mass.) in 100 μL of medium containing 2.5% FCS. […] CH-11 antibody (100 ng/mL) was then added, and the cells were incubated for 24 hours before assessing cell viability by a 3-(4,5-Dimethylthiazol-2-yl)-2,5-diphenyltetrazolium Bromide (MTT) dye reduction assay (Sigma).
Cell death assays. […] Absorbance readings were plotted against a standard curve to derive the corresponding cell number, and cell viability was expressed as a percentage relative to untreated cells.

Molecule | effect of zVAD-fmk on sensitization to CH-11 (PPC-1 cells [1]) | IC50 (PPC-1 cells [2]; PPC-1 cells) | toxicity when added alone relative to 5541203 (PPC-1 cells [2]; PPC1 cells, without anti-FAS antibody) | LD50 (μM) (PPCl, CH-11) (PPC-1 cells [2]) | combination Index (CI) (PPC-1 cells [2]; combined with CH-11, median-dose combination index (Chou, 1991), synergy) | LD50 (μM) (PPCl, CH-11) (PPC-1 cells [2]; listed as N-[4-chloro-3-(trifluoromethyl)phenyl]-3-oxobutanamide) | direct toxicity (PPC-1 cells [2]; PPC-1 cells, compound alone, concentrations up to 80 μM)
CCn1c(=N)n(CC(=O)c2cc(C(C)(C)C)c(O)c(C(C)(C)C)c2)c2ccccc21 [compound 5569100, 1-(3,5-di-tert-butyl-4-hydroxyphenyl)-2-(3-ethyl-2-imino-2,3-dihydro-1H-benzo[d]imidazol-1-yl)ethanone hydrobromide] | zVAD-fmk blocked sensitization to CH-11 | 15 µM | 3 times | 5.6 µM | did not demonstrate synergy |  | 
CC(=O)CC(=O)Nc1ccc(Cl)c(C(F)(F)F)c1 [compound 6094911, N-[4-chloro-3-(trifluoromethyl)phenyl]-3-oxobutanamide] | zVAD-fmk blocked sensitization to CH-11 | > 100 µM |  | 35+4 μM |  | 35 ± 4 µM | little direct toxicity
4-(4-chloro-2-methylphenoxy)-N-hydroxybutanamide [compound 5809354] | zVAD-fmk blocked sensitization to CH-11 |  |  | 20+2 μM |  |  | 
